Read-outs that look alike come from different tables or passages of the source.
Biological target: BTK wild type (Homo sapiens (Human), UniProt Q06187)
Experiment: Inhibition assay of BTK kinase activity (HTRF)
Assay type: biochemical
Description: Inhibition Assay of BTK Kinase Activity:
The enzyme reaction mixture of BTK wild type standard HTRF assay contained 1 nM BTK wild type, 1 μM biotin-TK1 peptide, and 30 μM ATP in a buffer. The enzyme reaction were carried out at room temperature for 60 minutes. […] The plates were incubated at room temperature for 60 minutes and then read in the Envision plate reader.

[1] = all compounds with IC50 of less 10 nM, read-out: IC50 (BTK)

BTK wild type, sequence (Q06187 whole entry): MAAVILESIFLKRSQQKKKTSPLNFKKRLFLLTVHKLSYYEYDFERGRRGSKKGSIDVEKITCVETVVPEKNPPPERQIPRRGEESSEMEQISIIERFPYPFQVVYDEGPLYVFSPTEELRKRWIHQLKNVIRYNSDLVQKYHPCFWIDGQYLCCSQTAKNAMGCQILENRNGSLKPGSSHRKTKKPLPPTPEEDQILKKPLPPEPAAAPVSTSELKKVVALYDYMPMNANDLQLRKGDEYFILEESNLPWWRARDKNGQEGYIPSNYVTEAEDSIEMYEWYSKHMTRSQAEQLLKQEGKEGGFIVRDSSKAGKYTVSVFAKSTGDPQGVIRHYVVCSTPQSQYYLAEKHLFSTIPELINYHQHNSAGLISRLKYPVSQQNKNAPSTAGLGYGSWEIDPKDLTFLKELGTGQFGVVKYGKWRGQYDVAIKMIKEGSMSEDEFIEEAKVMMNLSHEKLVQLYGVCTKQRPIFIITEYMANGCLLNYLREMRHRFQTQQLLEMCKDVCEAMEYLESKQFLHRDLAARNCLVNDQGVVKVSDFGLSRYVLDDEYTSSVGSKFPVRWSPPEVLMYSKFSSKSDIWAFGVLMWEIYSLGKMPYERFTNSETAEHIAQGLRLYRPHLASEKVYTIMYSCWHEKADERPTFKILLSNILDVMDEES

SMILES | IC50 (read-out: BTK IC50) [nM] | IC50 [1] [nM]
C=CC(=O)N1CCCC(n2nc(-c3ccc(C(=O)c4ccc(F)cc4)c(F)c3)c3c(N)ncnc32)C1 (stereo not shown) [Compound 1, 1-(3-(4-amino-3-(3-fluoro-4-(4-fluorobenzoyl)phenyl)-1H-pyrazolo[3,4-d]pyrimidin-1-yl)piperidin-1-yl)prop-2-en-1-one] | 66 | –
C=CC(=O)N1CCCC(n2nc(-c3ccc(C(=O)c4ccc(F)cc4)cc3F)c3c(N)ncnc32)C1 (stereo not shown) [Compound 2, 1-(3-(4-amino-3-(2-fluoro-4-(4-fluorobenzoyl)phenyl)-1H-pyrazolo[3,4-d]pyrimidin-1-yl)piperidin-1-yl)prop-2-en-1-one] | 5 | –
C=CC(=O)N1CCCC(n2nc(-c3ccc(C(=O)c4cccc(F)c4)c(F)c3)c3c(N)ncnc32)C1 (stereo not shown) [Compound 3, 1-(3-(4-amino-3-(3-fluoro-4-(3-fluorobenzoyl)phenyl)-1H-pyrazolo[3,4-d]pyrimidin-1-yl)piperidin-1-yl)prop-2-en-1-one] | 10 | –
C=CC(=O)N1CCCC(n2nc(-c3ccc(C(=O)c4ccccc4F)cc3F)c3c(N)ncnc32)C1 (stereo not shown) [Compound 4, 1-(3-(4-amino-3-(2-fluoro-4-(2-fluorobenzoyl)phenyl)-1H-pyrazolo[3,4-d]pyrimidin-1-yl)piperidin-1-yl)prop-2-en-1-one] | 2 | –
Cc1oncc1C(=O)N1CCCC(n2nc(-c3ccc(C(=O)c4cccc(F)c4)cc3F)c3c(N)ncnc32)C1 (stereo not shown) [Compound 6, (3-(4-amino-3-(2-fluoro-4-(3-fluorobenzoyl)phenyl)-1H-pyrazolo[3,4-d]pyrimidin-1-yl)piperidin-1-yl)(5-methylisoxazol-4-yl)methanone] | 138 | –
C/C(O)=C(/C#N)C(=O)N1CCCC(n2nc(-c3ccc(C(=O)c4cccc(F)c4)cc3F)c3c(N)ncnc32)C1 (stereo not shown) [Compound 7, (E)-2-(3-(4-amino-3-(2-fluoro-4-(3-fluorobenzoyl)phenyl)-1H-pyrazolo[3,4-d]pyrimidin-1-yl)piperidine-1-carbonyl)-3-hydroxybut-2-enenitrile] | 730 | –
C=CS(=O)(=O)N1CCCC(n2nc(-c3ccc(C(=O)c4cccc(F)c4)cc3F)c3c(N)ncnc32)C1 (stereo not shown) [Compound 8, (4-(4-amino-1-(1-(vinylsulfonyl)piperidin-3-yl)-1H-pyrazolo[3,4-d]pyrimidin-3-yl)-3-fluorophenyl)(3-fluorophenyl)methanone] | 2 | –
Nc1ncnc2c1c(-c1ccc(C(=O)c3cccc(F)c3)cc1F)nn2C1CCCN(C(=O)C2CO2)C1 (stereo not shown) [Compound 9, (3-(4-amino-3-(2-fluoro-4-(3-fluorobenzoyl)phenyl)-1H-pyrazolo[3,4-d]pyrimidin-1-yl)piperidin-1-yl)(oxiran-2-yl)methanone] | 83 | –
CC(C)(C)OC(=O)N1CCCC(n2nc(-c3ccc(Oc4ccccc4[N+](=O)[O-])cc3F)c3c(N)ncnc32)C1 (stereo not shown) [Compound 10, tert-butyl 3-(4-amino-3-(2-fluoro-4-(2-nitrophenoxy)phenyl)-1H-pyrazolo[3,4-d]pyrimidin-1-yl)piperidine-1-carboxylate] | 1970 | –
C=CC(=O)N1CCCC(n2nc(-c3ccc(Oc4c(F)c(F)cc(F)c4F)cc3F)c3c(N)ncnc32)C1 (stereo not shown) [Compound 11, 1-(3-(4-amino-3-(2-fluoro-4-(2,3,5,6-tetrafluorophenoxy)phenyl)-1H-pyrazolo[3,4-d]pyrimidin-1-yl)piperidin-1-yl)prop-2-en-1-one] | 0.8 | < 10
C=CC(=O)N1CCCC(n2nc(-c3ccc(Oc4cccc(F)c4[N+](=O)[O-])cc3F)c3c(N)ncnc32)C1 (stereo not shown) [Compound 12, 1-(3-(4-amino-3-(2-fluoro-4-(3-fluoro-2-nitrophenoxy)phenyl)-1H-pyrazolo[3,4-d]pyrimidin-1-yl)piperidin-1-yl)prop-2-en-1-one] | 2 | < 10
C=CC(=O)N[C@H]1CC[C@@H](n2nc(-c3ccc(Oc4cccc(F)c4)cc3F)c3c(N)ncnc32)CC1 [Compound 13, N-((1s,4s)-4-(4-amino-3-(2-fluoro-4-(3-fluorophenoxy)phenyl)-1H-pyrazolo[3,4-d]pyrimidin-1-yl)cyclohexyl)acrylamide] | 1 | < 10
C=CC(=O)N[C@H]1CC[C@H](n2nc(-c3ccc(Oc4cccc(F)c4)cc3F)c3c(N)ncnc32)CC1 [Compound 14, N-((1r,4r)-4-(4-amino-3-(2-fluoro-4-(3-fluorophenoxy)phenyl)-1H-pyrazolo[3,4-d]pyrimidin-1-yl)cyclohexyl)acrylamide] | 9 | –
C=CC(=O)N1CCC(n2nc(-c3ccc(Oc4cccc(F)c4)cc3F)c3c(N)ncnc32)C1 (stereo not shown) [Compound 15, 1-(3-(4-amino-3-(2-fluoro-4-(3-fluorophenoxy)phenyl)-1H-pyrazolo[3,4-d]pyrimidin-1-yl)pyrrolidin-1-yl)prop-2-en-1-one] | 3 | < 10
C=CC(=O)N[C@@H]1CC[C@@H](n2nc(-c3ccc(Oc4cccc(F)c4)cc3F)c3c(N)ncnc32)C1 [Compound 16, N-((1r,3r)-3-(4-amino-3-(2-fluoro-4-(3-fluorophenoxy)phenyl)-1H-pyrazolo[3,4-d]pyrimidin-1-yl)cyclopentyl)acrylamide] | 3 | < 10
C=CC(=O)N[C@H]1CC[C@@H](n2nc(-c3ccc(Oc4cccc(F)c4)cc3F)c3c(N)ncnc32)C1 [Compound 17, N-((1s,3r)-3-(4-amino-3-(2-fluoro-4-(3-fluorophenoxy)phenyl)-1H-pyrazolo[3,4-d]pyrimidin-1-yl)cyclopentyl)acrylamide] | 4 | < 10
C=CC(=O)N1CCCC(n2nc(-c3ccc(Oc4cccc(F)c4)cc3F)c3c(N)ncnc32)C1 (stereo not shown) [Compound 18, 1-(3-(4-amino-3-(2-fluoro-4-(3-fluorophenoxy)phenyl)-1H-pyrazolo[3,4-d]pyrimidin-1-yl)piperidin-1-yl)prop-2-en-1-one] | 3 | < 10
C=CC(=O)N1CCCC(n2nc(-c3ccc(Oc4ccccc4NS(C)(=O)=O)cc3F)c3c(N)ncnc32)C1 (stereo not shown) [Compound 19, N-(2-(4-(1-(1-acryloylpiperidin-3-yl)-4-amino-1H-pyrazolo[3,4-d]pyrimidin-3-yl)-3-fluorophenoxy)phenyl)methanesulfonamide] | 67 | –
C=CC(=O)N1CCCC(n2nc(-c3ccc(Oc4cccc(NS(C)(=O)=O)c4)cc3F)c3c(N)ncnc32)C1 (stereo not shown) [Compound 20, N-(3-(4-(1-(1-acryloylpiperidin-3-yl)-4-amino-1H-pyrazolo[3,4-d]pyrimidin-3-yl)-3-fluorophenoxy)phenyl)methanesulfonamide] | 4 | < 10
C=CC(=O)N1CCCC(n2nc(-c3ccc(Oc4c(F)ccc(F)c4F)cc3F)c3c(N)ncnc32)C1 (stereo not shown) [Compound 21, 1-(3-(4-amino-3-(2-fluoro-4-(2,3,6-trifluorophenoxy)phenyl)-1H-pyrazolo[3,4-d]pyrimidin-1-yl)piperidin-1-yl)prop-2-en-1-one] | 5 | < 10
C=CC(=O)N[C@H]1CC[C@@H](n2nc(-c3ccc(Oc4c(F)c(F)cc(F)c4F)cc3F)c3c(N)ncnc32)CC1 [Compound 22, N-((1s,4s)-4-(4-amino-3-(2-fluoro-4-(2,3,5,6-tetrafluorophenoxy)phenyl)-1H-pyrazolo[3,4-d]pyrimidin-1-yl)cyclohexyl)acrylamide] | 50 | –
C=CC(=O)N1CCC(n2nc3c4c(ncnc42)Nc2cc(Oc4c(F)c(F)cc(F)c4F)ccc2-3)C1 (stereo not shown) [Compound 24] | 1020 | –

— patent publication US9532990B2 (Zhejiang DTRM Biopharma Co. Ltd., priority 2014, dated 2017)
